For data set [1], the system named is A2058, human malignant melanoma cells. Briefly: MTT cell proliferation assay in A2058 cells. The data set is classed as cell-based. Particulars: A2058, 72 h, three days exposure. The procedure:
(§1) MTT [3-(4,5-dimethylthiazol-2-yl)-2,5-diphenyltetrazolium bromide] incorporation based cell proliferation assay was performed using standard procedure with some modifications (38). The cytotoxic efficacy of the test compounds were evaluated in human malignant melanoma A2058 cells by MTT cell proliferation assay kit (Roche Applied Sciences, Germany). The assay was carried out according to the instruction provided by the vendor. Briefly, equal numbers of cells was plated in 96-well flat-bottomed plates in 100 μl of medium and were exposed to either DTIC or its derivative compounds at various concentrations up to 150 μg/ml for a period of three days. Vehicle control culture wells received only a maximum of 0.5% DMSO. Thereafter, 0.5 mg/ml of MTT reagent was added to each well and the microplate was incubated further for 4 h at 37° C. in presence of 5% CO2. Finally, the cells were solubilized by adding solubilizing solution and allowed to incubate at 37° C. overnight. After complete solubilization of the formazan crystals the absorbance was read at 540 nm in a microplate reader (BioRad, USA). The results (mean OD±SD) obtained from quadruplicate wells were used in calculation to determine the inhibition of cell proliferation (50% inhibitory concentration, IC50) of the test compounds.
Background: Formazan colour is commonly taken as a measure of viable cells.

Data set [2] concerns normal human skin epithelial HS.531.sk cells. Put plainly: LDH leakage assay on normal skin cells (tumor selectivity). Particulars: 120 μg/ml. Format: cell-based. The procedure:
From the data obtained from the MTT assay (Table J), compound 1, compound 6 and compound 13 have been selected and their cytotoxicity potential has been further validated in LDH leakage assay. […] Cytotoxicity potential of DTIC and its derivative compounds were evaluated by measuring the leaked lactate dehydrogenase (LDH) into the culture supernatant (LDH Cytotoxicity Detection Roche Applied Sciences, Germany). The leaked LDH is directly proportional to the cell damage done by the cytotoxic compounds. In brief, cells were treated with test compounds at various concentrations and incubated for 48 h. Vehicle control culture wells received only a maximum of 0.5% DMSO. The cell free culture supernatants were mixed with catalyst and dye solution and allowed to incubate for 15 min at room temperature. Finally, the reaction was stopped and the optical density was measured at 492 nm in a microplate reader (BioRad, USA). The results (mean OD±SD) obtained from quadruplicate wells were used in calculation to determine the cytotoxicity potential (50% of inhibitory concentration, IC50) of the test compounds. A plot of loss of cell viability as indicated by the leakage of LDH versus drug concentration is depicted in FIG. 1.
Next, to check whether the DTIC derivative compounds can selectively kill the melanoma cells without or minimally affecting the normal cells, we assessed the effect of the test compounds on normal human skin epithelial HS.531.sk cells. […] Whereas, 120 μg/ml of DTIC, compound 1, […] caused 5.8%, 4.2%, 2.4%, and 2.4% reduction in normal cell viability, respectively.

The test system of data set [3] is MCF-7 human breast tumor cells. Briefly: MTT cell proliferation assay in MCF-7 cells. The data set is classed as cell-based. The following applies: MCF7, read-out: 50% of inhibitory concentration, IC50 MCF-7. The procedure:
as §1
(§2) Anti-tumor growth potential of Compound 1 and Compound 6 were evaluated in MCF-7 human breast tumor cells, MIA-PaCa2 human pancreas tumor cells and DU145 human prostate tumor cells by using MTT based cell proliferation studies as described earlier (example 19). The results (mean OD±SD) obtained from quadruplicate wells were used in calculation to determine the inhibition of cell proliferation (50% of inhibitory concentration, IC50) of the test compounds (Table 4).

Data set [4] has as its system MIA-PaCa2 human pancreas tumor cells. Briefly: MTT cell proliferation assay in MIA-PaCa2 cells. The data set is classed as cell-based. The following applies: MIA PaCa-2, read-out: 50% of inhibitory concentration, IC50 MIA-PaCa2. The procedure: as §1, §2
The subject of data set [5] is DU145 human prostate tumor cells. Put plainly: MTT cell proliferation assay in DU145 cells. Format: cell-based. Particulars: DU-145, read-out: 50% of inhibitory concentration, IC50 DU145. The procedure:
as §1, §2

For data set [6], the system named is PARP cleavage in A2058 human melanoma cells. Put plainly: PARP cleavage Western immunoblot assay. Format: cell-based. The following applies: 100 μg/ml, versus DTIC at the same concentration. The text has this: Proteolytic cleavage of PARP by caspases is regarded as a hallmark of apoptosis. Caspase-3 cleaves the 113-kDa PARP to generate 89- and 24-kDa polypeptides (39). Next, with an intention to evaluate the comparative apoptotic potential of DTIC and test products compound 1, compound 6 and compound 13, PARP cleavage assay has been performed on A2058 cells. PARP cleavage was estimated by using Western immunoblot assay as described earlier (40). FIG. 3 illustrates comparative efficacy of PARP cleavage by the test compounds at a fixed dose of 100 μg/ml. […] No. 3 treated A2058 cells is 56.6% more than in DTIC treated cells at the same concentration.
Background: In western blotting, separated proteins are transferred to a membrane and probed.

From patent US8258119B2, “Anti-cancer drugs and uses relating thereto for metastatic malignant melanoma and other cancers” (Kasina Laila Innova Pharmaceuticals, priority 2008, dated 2012) come the findings set out here.

In brackets after ≈: the same amount, converted by molar mass.

`CN(C)/N=N/c1ccsc1C(=O)[O-].[K+]`: the melting point – broadly, the temperature, or range, at which the solid turns liquid – fell in the range of 274 to 280 °C.
`CN(C)/N=N/c1ccsc1C(N)=O` [Compound 1, 3-[(dimethylamino)diazenyl]thiophene-2-carboxamide] came in with a melting point of 168 to 170 °C. In addition, the IC50 in data set [1] is 78.7 µg/mL (≈ 397 µM). In addition, the “reduction in normal cell viability” value in data set [2] is 4.2%. Moreover, the IC50 in data set [3] amounted to 130 µg/mL (≈ 657 µM). Also, the IC50 in data set [4] is 168 µg/mL (≈ 850 µM). The IC50 in data set [5] was determined as 153 µg/mL (≈ 773 µM).
In the case of `CN(C)/N=N/c1c(Br)csc1C(N)=O` [Compound 2, 3-[(dimethylamino)diazenyl]-4-bromothiophene-2-carboxamide], the melting point was 194 to 196 °C. In data set [1], this compound showed an IC50 of 113 µg/mL (≈ 409 µM).
On to `CN(C)/N=N/c1cc([N+](=O)[O-])sc1C(N)=O` [Compound 3, 3-[(dimethylamino)diazenyl]-5-nitrothiophene-2-carboxamide], for which, in data set [2], the “reduction in normal cell viability” value is 2.4%. In addition, in data set [6], the “expression of cleaved subunit of PARP at 89 kDa, more than in DTIC treated cells” value is on record as 56.6%.
`COc1c(C(N)=O)sc(C(N)=O)c1/N=N/N(C)C` [Compound 4, 4-[(dimethylamino)diazenyl]-3-methoxythiophene-2,5-dicarboxamide]: the melting point was in the range of 226 to 228 °C. Also, the “reduction in normal cell viability” value in data set [2] is given as 2.4%.
The compound `CN(C)/N=N/c1cc(-c2ccccc2)sc1C(N)=O` [Compound 5, 3-[(dimethylamino)diazenyl]-5-phenylthiophene-2-carboxamide] returned a melting point of 220 to 222 °C.
On to `CN(C)/N=N/c1cc([N+](=O)[O-])sc1C(=O)O` [Compound 7, 3-[(dimethylamino)diazenyl]-5-nitrothiophene-2-carboxylic acid], for which the melting point fell in the range of 184 to 186 °C.
The same measure, in the same setting: in the case of `CN(C)/N=N/c1cc(-c2ccccc2)sc1C(=O)O` [Compound 8, 3-[(dimethylamino)diazenyl]-5-phenylthiophene-2-carboxylic acid] it was 162 to 166 °C.
Consider `CN(C)/N=N/c1ccsc1C(=O)NCCO` [Compound 9, {3-[(dimethylamino)diazenyl] (2-thienyl)}-N-(2-hydroxyethyl)-carboxamide], for which the melting point was 118 to 122 °C. Further, the IC50 in data set [1] stood at 214 µg/mL (≈ 884 µM).
For `CNC(=O)c1sccc1/N=N/N(C)C` [Compound 10, {3-[(dimethylamino)diazenyl](2-thienyl)}-N-methylcarboxamide] the same measures were 98 to 102 °C and 179 µg/mL (≈ 842 µM).
In turn, `CN(C)/N=N/c1ccsc1C(=O)NCCN` [Compound 11, N-(2-aminoethyl){3-[(dimethylamino)diazenyl](2-thienyl)}-carboxamide] came in with an IC50 in data set [1] of 164 µg/mL (≈ 681 µM).
For `CN(C)/N=N/c1csc(C(N)=O)c1` [Compound 12], the melting point fell in the range of 128 to 130 °C. In data set [1], this compound had an IC50 of 165 µg/mL (≈ 832 µM).
Taken in the same sequence, the figures for `CN(C)/N=N/c1cscc1C(N)=O` [Compound 13, 4-[(dimethylamino)diazenyl]thiophene-3-carboxamide] were 168 to 172 °C and 48.8 µg/mL (≈ 246 µM).
Taken in the same sequence, the figures for `Cn1nnc2sc(N)cc2c1=O` [Compound 17, 6-amino-3-methylthiopheno[2,3-d]1,2,3-triazin-4-one] were 190 to 194 °C and 147 µg/mL (≈ 805 µM).
`Cn1nnc2cc(-c3ccccc3)sc2c1=O` [Compound 18, 3-methyl-6-phenylthiopheno[3,2-d]1,2,3-triazin-4-one] displayed a melting point of 220 to 222 °C.
